Source: patent publication US20230295197A1, “STAT5 and STAT6 Degraders and Uses Thereof” (REGENTS OF THE UNIVERSITY OF MICHICAN, priority 2022, published 2023)
Like-named read-outs stand apart in the source and are kept apart here. *1 amine or outer side, *2 acyl side, *3 side chain or, on linkers, in order; H or OH if unused. Where a SMILES comes first, the peptide text is derived from it. [ ]: non-standard residue; d: D form. The star is where a group is joined. Benzothienyl2CO(5-CF2PO3H2) = O=C(c1cc2cc(C(F)(F)P(=O)(O)O)ccc2s1)*; βAla(N-(4-Br-phenyl)) = O=C(CCN(c1ccc(Br)cc1)[*:1])[*:2]; NHBn(4-(4-Me-thiazol-5-yl)) = Cc1ncsc1-c1ccc(CN*)cc1; Hyp = O=C(O)[C@@H]1C[C@@H](O)CN1; Tle = CC(C)(C)[C@H](N)C(=O)O; Ahx = NCCCCCC(=O)O

Molecular target: T1, STAT6 (Homo sapiens, UniProt P42226)
T1 construct: endogenous in cells; host or cells: MOLM-16, KU-812, SKNO1, MB231, L1236
T1 sequence (P42226 1-847): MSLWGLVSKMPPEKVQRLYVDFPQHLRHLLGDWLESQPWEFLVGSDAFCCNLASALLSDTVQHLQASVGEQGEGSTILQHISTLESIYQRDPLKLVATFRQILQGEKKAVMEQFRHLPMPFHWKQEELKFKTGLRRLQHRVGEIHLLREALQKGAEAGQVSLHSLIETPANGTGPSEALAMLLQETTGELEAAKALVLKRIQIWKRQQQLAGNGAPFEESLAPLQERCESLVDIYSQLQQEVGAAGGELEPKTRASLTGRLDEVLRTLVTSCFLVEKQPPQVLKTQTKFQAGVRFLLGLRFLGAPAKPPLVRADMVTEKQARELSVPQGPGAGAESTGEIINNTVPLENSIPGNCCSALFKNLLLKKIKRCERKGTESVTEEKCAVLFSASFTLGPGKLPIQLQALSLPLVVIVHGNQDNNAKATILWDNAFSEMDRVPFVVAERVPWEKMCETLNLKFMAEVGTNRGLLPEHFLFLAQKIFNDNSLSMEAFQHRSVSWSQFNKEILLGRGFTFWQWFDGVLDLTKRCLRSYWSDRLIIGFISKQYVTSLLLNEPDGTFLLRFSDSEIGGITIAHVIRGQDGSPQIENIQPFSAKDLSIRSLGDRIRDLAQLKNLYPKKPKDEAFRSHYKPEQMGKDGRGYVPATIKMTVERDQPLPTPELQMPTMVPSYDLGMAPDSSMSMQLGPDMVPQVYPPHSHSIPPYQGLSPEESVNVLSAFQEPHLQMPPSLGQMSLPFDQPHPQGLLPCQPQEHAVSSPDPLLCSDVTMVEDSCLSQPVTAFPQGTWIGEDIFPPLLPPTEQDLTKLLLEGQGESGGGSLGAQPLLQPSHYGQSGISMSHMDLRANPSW
Experiment: Immunoblotting (Western blot) analysis of STAT6 degradation efficiency of degraders in treated cells
Assay type: cell-based
Summary of the method: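 Read-out: fluorescent IRDye 680RD/800CW secondaries imaged on an infrared scanner, with band intensities quantified by densitometry and GAPDH serving as loading control. Samples were RIPA lysates, BCA-normalised, from ~1 million treated cells.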

[1] = MOLM-16 cells, class symbols, read-out: DC50 S6 MOLM-16
[2] = MOLM-16 cells, numeric bound, read-out: DC50 S6 MOLM-16
[3] = L1236 cells, read-out: DC50 S6 L1236

DC50 [1]	Compound	also measured
> 10 µM	CC(C)(C)[C@H](NC(=O)c1cc2cc(C(F)(F)P(=O)(O)O)ccc2s1)C(=O)N1Cc2cc(OCC(=O)NCC#Cc3ccc4c(c3)C(=O)N(C3CCC(=O)NC3=O)C4=O)ccc2C[C@H]1C(=O)N1CCC[C@H](c2ccccc2)C1 (stereo partly drawn) [Compound 550, ((2-(((2S)-1-((3S)-7-(2-((3-(2-(2,6-dioxopiperidin-3-yl)-1,3-dioxoisoindolin-5-yl)prop-2-yn-1-yl)amino)-2-oxoethoxy)-3-((R)-3-phenylpiperidine-1-carbonyl)-3,4-dihydroisoquinolin-2(1H)-yl)-3,3-dimethyl-1-oxobutan-2-yl)carbamoyl)benzo[b]thiophen-5-yl)difluoromethyl)phosphonic acid]	
	CC(C)(C)[C@H](NC(=O)c1cc2cc(C(F)(F)P(=O)(O)O)ccc2s1)C(=O)N1CCN(C(=O)CCCC#Cc2ccc3c(c2)CN(C2CCC(=O)NC2=O)C3=O)C[C@H]1C(=O)N1CCO[C@H](c2ccccc2)C1 (stereo partly drawn) [Compound 597, ((2-(((2S)-1-((2S)-4-(6-(2-(2,6-dioxopiperidin-3-yl)-1-oxoisoindolin-5-yl)hex-5-ynoyl)-2-((R)-2-phenylmorpholine-4-carbonyl)piperazin-1-yl)-3,3-dimethyl-1-oxobutan-2-yl)carbamoyl)benzo[b]thiophen-5-yl)difluoromethyl)phosphonic acid]	DC50 [2]: > 0.3 µM
< 0.1 µM	CC(C)(C)[C@H](NC(=O)c1cc2cc(C(F)(F)P(=O)(O)O)ccc2s1)C(=O)N1C[C@@H](OCCCCC#Cc2cccc3c2CN(C2CCC(=O)NC2=O)C3=O)C[C@H]1C(=O)N1CCO[C@H](c2ccccc2)C1 (stereo partly drawn) [Compound 594, ((2-(((2S)-1-((2S,4S)-4-((6-(2-(2,6-dioxopiperidin-3-yl)-1-oxoisoindolin-4-yl)hex-5-yn-1-yl)oxy)-2-((R)-2-phenylmorpholine-4-carbonyl)pyrrolidin-1-yl)-3,3-dimethyl-1-oxobutan-2-yl)carbamoyl)benzo[b]thiophen-5-yl)difluoromethyl)phosphonic acid]	
	Cc1ncsc1-c1ccc(CNC(=O)[C@@H]2C[C@@H](O)CN2C(=O)[C@@H](NC(=O)CCCCCNC(=O)CCN(C(=O)[C@@H]2CCCN2C(=O)[C@@H](NC(=O)c2cc3cc(C(F)(F)P(=O)(O)O)ccc3s2)C(C)(C)C)c2ccc(Br)cc2)C(C)(C)C)cc1 [Compound 400] ({Benzothienyl2CO(5-CF2PO3H2)}-[Tle]P[βAla(N-(4-Br-phenyl))][Ahx][Tle][Hyp]-{NHBn(4-(4-Me-thiazol-5-yl))})	DC50 (read-out: DC50 S6 MB231, MB231 cells): > 10 µM
> 10 µM	CC(C)(C)[C@H](NC(=O)c1cc2cc(C(F)(F)P(=O)(O)O)ccc2s1)C(=O)N1Cc2cc(OCC(=O)NCCCCC#Cc3ccc4c(c3)C(=O)N(C3CCC(=O)NC3=O)C4=O)ccc2C[C@H]1C(=O)N1CCO[C@H](c2ccccc2)C1 (stereo partly drawn) [Compound 542, ((2-(((2S)-1-((3S)-7-(2-((6-(2-(2,6-dioxopiperidin-3-yl)-1,3-dioxoisoindolin-5-yl)hex-5-yn-1-yl)amino)-2-oxoethoxy)-3-((R)-2-phenylmorpholine-4-carbonyl)-3,4-dihydroisoquinolin-2(1H)-yl)-3,3-dimethyl-1-oxobutan-2-yl)carbamoyl)benzo[b]thiophen-5-yl)difluoromethyl)phosphonic acid]	
> 10 µM	CC(C)(C)[C@H](NC(=O)c1cc2cc(C(F)(F)P(=O)(O)O)ccc2s1)C(=O)N1Cc2cc(OCC(=O)NCCCC#Cc3ccc4c(c3)C(=O)N(C3CCC(=O)NC3=O)C4=O)ccc2C[C@H]1C(=O)N1CCO[C@H](c2ccccc2)C1 (stereo partly drawn) [Compound 540, ((2-(((2S)-1-((3S)-7-(2-((5-(2-(2,6-dioxopiperidin-3-yl)-1,3-dioxoisoindolin-5-yl)pent-4-yn-1-yl)amino)-2-oxoethoxy)-3-((R)-2-phenylmorpholine-4-carbonyl)-3,4-dihydroisoquinolin-2(1H)-yl)-3,3-dimethyl-1-oxobutan-2-yl)carbamoyl)benzo[b]thiophen-5-yl)difluoromethyl)phosphonic acid]	
	CC(C)(C)[C@H](NC(=O)c1cc2cc(C(F)(F)P(=O)(O)O)ccc2s1)C(=O)N1C[C@@H](OCCCCCCC#Cc2cccc3c2CN(C2CCC(=O)NC2=O)C3=O)C[C@H]1C(=O)N1CCOC(c2cccs2)C1 (stereo partly drawn) [Compound 611]	DC50 [2]: > 0.3 µM
> 10 µM	CC(C)(C)[C@H](NC(=O)c1cc2cc(C(F)(F)P(=O)(O)O)ccc2s1)C(=O)N1C[C@@H](OCC(=O)NCCCCCCCCCC#Cc2ccc3c(c2)C(=O)N(C2CCC(=O)NC2=O)C3=O)C[C@H]1C(=O)N1CCO[C@H](c2ccccc2)C1 (stereo partly drawn) [Compound 492, ((2-(((2S)-1-((2S,4S)-4-(2-((11-(2-(2,6-dioxopiperidin-3-yl)-1,3-dioxoisoindolin-5-yl)undec-10-yn-1-yl)amino)-2-oxoethoxy)-2-((R)-2-phenylmorpholine-4-carbonyl)pyrrolidin-1-yl)-3,3-dimethyl-1-oxobutan-2-yl)carbamoyl)benzo[b]thiophen-5-yl)difluoromethyl)phosphonic acid]	
> 10 µM	CC(C)(C)[C@H](NC(=O)c1cc2cc(C(F)(F)P(=O)(O)O)ccc2s1)C(=O)N1Cc2cc(OCC(=O)NCCC#Cc3cccc4c3C(=O)N(C3CCC(=O)NC3=O)C4=O)ccc2C[C@H]1C(=O)N1CCC[C@H](c2ccccc2)C1 (stereo partly drawn) [Compound 551, ((2-(((2S)-1-((3S)-7-(2-((4-(2-(2,6-dioxopiperidin-3-yl)-1,3-dioxoisoindolin-4-yl)but-3-yn-1-yl)amino)-2-oxoethoxy)-3-((R)-3-phenylpiperidine-1-carbonyl)-3,4-dihydroisoquinolin-2(1H)-yl)-3,3-dimethyl-1-oxobutan-2-yl)carbamoyl)benzo[b]thiophen-5-yl)difluoromethyl)phosphonic acid]	

Compound	DC50 [1]	also measured
Cc1ncsc1-c1ccc([C@H](C)NC(=O)[C@@H]2C[C@@H](O)CN2C(=O)[C@@H](NC(=O)CCCCCCCCNC(=O)CO[C@H]2C[C@@H](C(=O)N3CCO[C@H](c4ccccc4)C3)N(C(=O)[C@@H](NC(=O)c3cc4cc(C(F)(F)P(=O)(O)O)ccc4s3)C(C)(C)C)C2)C(C)(C)C)cc1 [Compound 432, (difluoro(2-(((S)-1-((2S,4S)-4-(2-((9-(((S)-1-((2S,4R)-4-hydroxy-2-(((S)-1-(4-(4-methylthiazol-5-yl)phenyl)ethyl)carbamoyl)pyrrolidin-1-yl)-3,3-dimethyl-1-oxobutan-2-yl)amino)-9-oxononyl)amino)-2-oxoethoxy)-2-((R)-2-phenylmorpholine-4-carbonyl)pyrrolidin-1-yl)-3,3-dimethyl-1-oxobutan-2-yl)carbamoyl)benzo[b]thiophen-5-yl)methyl)phosphonic acid]	> 10 µM	DC50 [3]: > 10 µM
Cc1ncsc1-c1ccc([C@H](C)NC(=O)[C@@H]2C[C@@H](O)CN2C(=O)[C@@H](NC(=O)CCCNC(=O)CC(=O)N2CCN(C(=O)[C@@H](NC(=O)c3cc4cc(C(F)(F)P(=O)(O)O)ccc4s3)C(C)(C)C)[C@H](C(=O)N3CCC[C@H](c4ccccc4)C3)C2)C(C)(C)C)cc1 [Compound 454, (difluoro(2-(((S)-1-((S)-4-(3-((4-(((S)-1-((2S,4R)-4-hydroxy-2-(((S)-1-(4-(4-methylthiazol-5-yl)phenyl)ethyl)carbamoyl)pyrrolidin-1-yl)-3,3-dimethyl-1-oxobutan-2-yl)amino)-4-oxobutyl)amino)-3-oxopropanoyl)-2-((R)-3-phenylpiperidine-1-carbonyl)piperazin-1-yl)-3,3-dimethyl-1-oxobutan-2-yl)carbamoyl)benzo[b]thiophen-5-yl)methyl)phosphonic acid]	> 10 µM	DC50 [3]: > 10 µM
Cc1ncsc1-c1ccc([C@H](C)NC(=O)[C@@H]2C[C@@H](O)CN2C(=O)[C@@H](NC(=O)CCCCCNC(=O)CC(=O)N2CCN(C(=O)[C@@H](NC(=O)c3cc4cc(C(F)(F)P(=O)(O)O)ccc4s3)C(C)(C)C)[C@H](C(=O)N3CCO[C@H](c4ccccc4)C3)C2)C(C)(C)C)cc1 [Compound 447, (difluoro(2-(((S)-1-((S)-4-(3-((6-(((S)-1-((2S,4R)-4-hydroxy-2-(((S)-1-(4-(4-methylthiazol-5-yl)phenyl)ethyl)carbamoyl)pyrrolidin-1-yl)-3,3-dimethyl-1-oxobutan-2-yl)amino)-6-oxohexyl)amino)-3-oxopropanoyl)-2-((R)-2-phenylmorpholine-4-carbonyl)piperazin-1-yl)-3,3-dimethyl-1-oxobutan-2-yl)carbamoyl)benzo[b]thiophen-5-yl)methyl)phosphonic acid]	> 10 µM	DC50 [3]: > 10 µM
